Experimental data as given in BindingDB's records for doi:10.7270/Q2VT1QHF (Vanderbilt Screening Center For Gpcrs, Ion Channels and …, 2010).

Molecular target: Metabotropic glutamate receptor 4 (Homo sapiens, UniProt Q14833)
Assay: PubChem AID 2197

Metabotropic glutamate receptor 4, sequence (Q14833 whole entry): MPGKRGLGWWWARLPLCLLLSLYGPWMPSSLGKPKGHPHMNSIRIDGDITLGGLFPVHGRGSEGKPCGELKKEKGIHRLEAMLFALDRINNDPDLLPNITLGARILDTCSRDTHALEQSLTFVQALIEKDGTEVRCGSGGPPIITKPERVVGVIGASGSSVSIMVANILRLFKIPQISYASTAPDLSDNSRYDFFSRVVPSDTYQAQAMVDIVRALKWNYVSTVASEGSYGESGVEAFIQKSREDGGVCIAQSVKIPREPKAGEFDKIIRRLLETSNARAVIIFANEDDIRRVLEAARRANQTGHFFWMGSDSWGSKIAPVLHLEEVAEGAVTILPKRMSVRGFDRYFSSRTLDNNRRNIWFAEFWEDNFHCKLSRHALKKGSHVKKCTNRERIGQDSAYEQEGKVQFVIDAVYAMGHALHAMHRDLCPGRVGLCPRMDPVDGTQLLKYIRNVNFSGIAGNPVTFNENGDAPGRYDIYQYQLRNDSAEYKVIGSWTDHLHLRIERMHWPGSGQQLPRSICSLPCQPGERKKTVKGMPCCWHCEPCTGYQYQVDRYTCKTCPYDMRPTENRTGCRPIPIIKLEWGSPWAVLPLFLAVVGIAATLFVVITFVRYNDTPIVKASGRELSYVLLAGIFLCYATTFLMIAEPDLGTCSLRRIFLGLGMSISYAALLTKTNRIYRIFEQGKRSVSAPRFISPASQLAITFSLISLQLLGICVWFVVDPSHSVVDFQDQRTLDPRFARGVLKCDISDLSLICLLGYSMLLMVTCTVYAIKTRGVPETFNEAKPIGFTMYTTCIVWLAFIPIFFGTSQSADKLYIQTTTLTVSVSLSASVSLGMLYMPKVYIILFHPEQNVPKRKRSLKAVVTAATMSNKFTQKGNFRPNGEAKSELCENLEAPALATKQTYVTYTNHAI

SMILES	EC50
O=C(Nc1ccc(-n2c(O)ccc2O)c(Cl)c1)c1ccccn1 [N-[3-chloro-4-(2,5-dioxopyrrolidin-1-yl)phenyl]pyridine-2-carboxamide]	5.96 µM
O=C(Nc1ccc(-n2c(O)c3c(c2O)[C@H]2CC[C@@H]3O2)c(Cl)c1)c1ccccn1 [VU0405235-1]	1.44 µM
